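The compound was tested at five concentrations on cells cultured in 96-well plates, with a 48-hour exposure period. At the GI50, growth is halved. TGI denotes the concentration required for complete inhibition of growth.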
Tests used:
Test in all cases: NCI anticancer screen, dose series, 48 h
[1] = system: EKVX NSCLC
[2] = system: LOX IMVI melanoma
[3] = system: NCI/ADR-RES ovarian
[4] = system: NCI-H226 lung
[5] = system: SF-268 CNS
[6] = system: BT-549 breast
[7] = system: A549 NSCLC
[8] = system: M14 melanoma
[9] = system: MCF7 breast
[10] = system: UO-31 renal
[11] = system: RXF 393 renal
[12] = system: SN12C renal
[13] = system: SNB-19 CNS
[14] = system: NCI-H522 lung
[15] = system: SW-620 colon
[16] = system: U251 CNS
[17] = system: SF-539 CNS
[18] = system: OVCAR-5 ovarian
[19] = system: MDA-MB-231 breast
[20] = system: K-562 leukemia
[21] = system: T-47D breast
[22] = system: MALME-3M melanoma
[23] = system: NCI-H23 lung
[24] = system: HS 578T breast
[25] = system: MDA-MB-435
[26] = system: 786-0 renal
[27] = system: MOLT-4 leukemia
[28] = system: A498 renal
[29] = system: NCI-H460 lung
[30] = system: UACC-62 melanoma
[31] = system: DU-145 prostate
[32] = system: HCT-116 colon
[33] = system: OVCAR-8 ovarian
[34] = system: HCT-15 colon
[35] = system: OVCAR-4 ovarian
[36] = system: SF-295 CNS
[37] = system: COLO 205 colon
[38] = system: HOP-62 NSCLC
[39] = system: SK-MEL-28 melanoma
[40] = system: SK-OV-3 ovarian
[41] = system: SNB-75 CNS
[42] = system: HOP-92 NSCLC
[43] = system: SK-MEL-5 melanoma
[44] = system: IGROV1 ovarian
[45] = system: KM12 colon
[46] = system: UACC-257 melanoma
[47] = system: OVCAR-3 ovarian
[48] = system: HCC-2998 colon
[49] = system: TK-10 renal
[50] = system: PC-3 prostate
[51] = system: ACHN renal
[52] = system: SK-MEL-2 melanoma
[53] = system: CCRF-CEM leukemia
[54] = system: HT29 colon
[55] = system: CAKI-1 renal
[56] = system: SR leukemia

O=C(Nc1cccc(Cl)c1)c1cc(N=Nc2ccc([N+](=O)[O-])cc2Cl)ccc1O
GI50 [1]: 2.16 µM
TGI [1]: 6.57 µM
GI50 [2]: 3.02 µM
TGI [2]: 10.8 µM
GI50 [3]: 2.27 µM
TGI [3]: 5.93 µM
GI50 [4]: 2.88 µM
TGI [4]: 16.6 µM
GI50 [5]: 2.22 µM
TGI [5]: 11.4 µM
GI50 [6]: 2.35 µM
TGI [6]: 7.31 µM
GI50 [7]: 3.01 µM
TGI [7]: > 100 µM
GI50 [8]: 3.18 µM
TGI [8]: 12.1 µM
GI50 [9]: 2.03 µM
TGI [9]: 5.79 µM
GI50 [10]: 2.16 µM
TGI [10]: 6.08 µM
GI50 [11]: 2.56 µM
TGI [11]: 6.99 µM
GI50 [12]: 2.86 µM
TGI [12]: 8.87 µM
GI50 [13]: 3.07 µM
TGI [13]: > 100 µM
GI50 [14]: 2.94 µM
TGI [14]: 6.95 µM
GI50 [15]: 2.95 µM
GI50 [16]: 1.93 µM
TGI [16]: 7 µM
GI50 [17]: 2.41 µM
TGI [17]: 8.61 µM
GI50 [18]: 2.81 µM
TGI [18]: 10.6 µM
GI50 [19]: 2.03 µM
TGI [19]: 5.27 µM
GI50 [20]: 1.95 µM
TGI [20]: 4.72 µM
GI50 [21]: 1.62 µM
TGI [21]: 5.57 µM
GI50 [22]: 2.17 µM
TGI [22]: 5.92 µM
GI50 [23]: 1.93 µM
TGI [23]: 4.58 µM
GI50 [24]: 1.95 µM
TGI [24]: 7.71 µM
GI50 [25]: 2.34 µM
TGI [25]: 5.96 µM
GI50 [26]: 2.93 µM
TGI [26]: 8.27 µM
GI50 [27]: 1.74 µM
TGI [27]: 4.4 µM
GI50 [28]: 1.94 µM
TGI [28]: 4.51 µM
GI50 [29]: 2.74 µM
TGI [29]: 7.92 µM
GI50 [30]: 2.44 µM
TGI [30]: 6.65 µM
GI50 [31]: 1.43 µM
TGI [31]: 8.72 µM
GI50 [32]: 2.81 µM
TGI [32]: 8.25 µM
GI50 [33]: 3.04 µM
TGI [33]: 18 µM
GI50 [34]: 1.89 µM
TGI [34]: 5.85 µM
GI50 [35]: 2.67 µM
TGI [35]: > 100 µM
GI50 [36]: 1.49 µM
TGI [36]: 3.22 µM
GI50 [37]: 3.19 µM
TGI [37]: 11 µM
GI50 [38]: 3.27 µM
TGI [38]: 9.46 µM
GI50 [39]: 2.88 µM
TGI [39]: 10.9 µM
GI50 [40]: 1.94 µM
TGI [40]: 6.63 µM
GI50 [41]: 2.65 µM
TGI [41]: 20.5 µM
GI50 [42]: 1.24 µM
TGI [42]: 4.12 µM
GI50 [43]: 1.86 µM
TGI [43]: 3.81 µM
GI50 [44]: 3.12 µM
TGI [44]: 19 µM
GI50 [45]: 1.57 µM
TGI [45]: 4.61 µM
GI50 [46]: 2.55 µM
TGI [46]: 6.52 µM
GI50 [47]: 1.06 µM
TGI [47]: 4.38 µM
GI50 [48]: 1.95 µM
TGI [48]: 5.53 µM
GI50 [49]: 2.24 µM
TGI [49]: 6.92 µM
GI50 [50]: 1.94 µM
TGI [50]: 6.36 µM
GI50 [51]: 2.3 µM
TGI [51]: 6.46 µM
GI50 [52]: 1.81 µM
TGI [52]: 4.04 µM
GI50 [53]: 2.16 µM
TGI [53]: 5.81 µM
GI50 [54]: 2.83 µM
TGI [54]: 9.5 µM
GI50 [55]: 1.93 µM
TGI [55]: 4.02 µM
GI50 [56]: 1.6 µM
TGI [56]: 4.29 µM

Reference: PubChem BioAssay (NCI)
